For data set [1], the system named is arthropods. Nature of the data set: Arthropod repellent test of short-listed compounds found by pharmacophore database search. The format is in vivo. The note with it: for Experimental PT: Table 3, compounds identified by database search; for repellent activity against arthropods (in words): short list of 138 compounds from in-house CIS screened. An excerpt:
As provided in Example 4, the pharmacophore model of the present invention was used to search three-dimensional multiconformer databases, including an in-house Chemical Information System (Chemical Information System, Division of Experimental Therapeutics, Walter Reed Army Institute of Research, Silver Spring, Md.), National Cancer Institute, IBS and Maybridge databases, to screen for potential new repellent agents. The Chemical Information System database has over 240,000 compounds and was transformed into a multiconformer database in CATALYST® using the catDB® utility program as implemented in the software. The catDB® format allows a molecule to be represented by a limited set of conformations thereby permitting conformational flexibility to be included during the search of the database.
Specifically, the three-dimensional pharmacophore of the present invention was used as a template for search various three-dimensional multi-conformer databases. Three-dimensional multi-conformer databases of molecules comprise all possible conformations of the three-dimensional structure of each molecule in the database within an energy range of 0 to 25 kcal/mol. The three-dimensional structures in the databases were mapped to or compared with the three-dimensional pharmacophore of the present invention to identify compounds having the same or similar three-dimensional conformations.
The compounds were short listed on the basis of their ADME (Absorption, Distribution, Metabolism, and Excretion) properties and were evaluated by rapid in silico screening using Cerus^2ADME methodology. See Cerius^2ADME. Accelrys Inc. (2003) San Diego, Calif. The short listed compounds were then tested for arthropod repellent property using methods known in the art. See e.g. Debboun, et al. (1999) J. Am. Mosq. Cont. Assoc. 15(3):342-347; and Gupta, R K and Rutledge, L C (1991) J. Am. Mosq. Cont. Assoc. 7:490-493, which are herein incorporated by reference.
Three-dimensional multiconformer databases, including an in-house Chemical Information System (Chemical Information System, Division of Experimental Therapeutics, Walter Reed Army Institute of Research, Silver Spring, Md.), National Cancer Institute, IBS and Maybridge databases, were screened for potential new repellent agents using the pharmacophore model of the present invention. The Chemical Information System database of the Division of Experimental Therapeutics, WRAIR is a database of more than 245,000 proprietary compounds. By using the catDB utility program of the CATALYST®, the database was transformed into a multi-conformer based 3D database. The database searching protocol in the CATALYST® involves a rapid 3D screening process followed by a rigorous atom-by-atom mapping in which a fairly comprehensive set of features including the chemical features of the pharmacophore are considered. In addition to the traditional pharmacophore based searching, 3D shape similarity and partial match searching may also be performed. See Kurogi, Y and Gunner, O F (2001) Current Medicinal Chemistry 8:1035-1055, which is herein incorporated by reference.

Another data set concerns arthropod. The following applies: Table 1, training set of 11 repellents; protection (repelling) time; cited from earlier work.
The test system of the next data set is mosquitoes. The following applies: cited from earlier work.
In data set [2] the test system is arthropods. The note with it: under warm, humid conditions; cited from earlier work.
Another data set deals with white rats. The note with it: cited from earlier work.

Each structure is given as a SMILES string.

These results are taken from patent publication US7897162B2, “Arthropod repellent pharmacophore models, compounds identified as fitting the pharmacophore models, and methods of making and using thereof” (The United States of America as represented by the …, priority 2003, dated 2011).

Regarding `CCN(CC)C(=O)c1cccc(C(F)(F)F)c1` [N,N-diethyl-3-trifluoromethyl-benzamide], in the data set on arthropods [1], the “Experimental PT” value worked out at 0.5 h.
As for `COc1ccc(OC)c(C(=O)CBr)c1` [2-bromo-1-(2,5-dimethoxy-phenyl)-ethanone], in the data set with arthropods [1], the “Experimental PT” value was determined as 2.6 h and the “repellent activity against arthropods (in words)” value (“repellent activity” below) was “found to exhibit repellent activity against arthropods”.
Consider `CC(C)COC(=O)CC(O)C(=O)OCC(C)C` (centres unmarked), for which the “Experimental PT” value with arthropod is 2.5 h.
As to `O=C(OCCCO)c1ccccc1`, the “Experimental PT” value in the data set on arthropod was 7.5 h.
Turning to `CC(C)(Oc1ccccc1Cl)C(N)=O` [2-(2-chloro-phenoxy)-2-methyl-propionamide], in the data set on arthropods [1], the “Experimental PT” value was 2.6 h and the “repellent activity” value is given as “found to exhibit repellent activity against arthropods”.
Turning to `CCCCC(CC)(CO)CO`, in the data set on arthropod, the “Experimental PT” value is 1.7 h.
Turning to `CCN(CC)C(=O)CC1CCCCC1` [2-cyclohexyl-N,N-diethylacetamide], the “Experimental PT” value with arthropods [1] came to 0.24 h.
`Cc1cc(C)c(C)c(C(=O)C(C)C)c1C` [2-methyl-1-(2,3,5,6-tetramethyl-phenyl)-propan-1-one]: in the data set on arthropods [1], the “Experimental PT” value was 9.3 h and the “repellent activity” value is “found to exhibit repellent activity against arthropods”.
With `CCCCON1CN(C)N(OCCCC)C1=O`, the “Experimental PT” value with arthropod is 0.6 h.
As to `CCN(CC)C(=O)c1ccccc1Cl`, the “Experimental PT” value with arthropod was 1.2 h.
Turning to `CCCCCCCCC(O)C1CCC(CCCCC(=O)O)O1` (centres unmarked) [5-[5-(1-hydroxy-nonyl)-tetrahydro-furan-2-yl]-pentanoic acid], the “landing and feeding deterrence” value in the data set on mosquitoes is “acts as a landing and feeding deterrent for mosquitoes”.
With `ClOc1c(Cl)c(Cl)c(Cl)c(Cl)c1Cl`, the “Experimental PT” value in the data set with arthropod is 0.2 h.
For the molecule `CCN(CC)C(=O)c1cccc(C)c1` [DEET, N,N-diethyl-m-toluamide], in the data set on arthropod, the “Experimental PT” value was 1.0 h. In addition, in the data set on arthropods [2], the duration of application is 1 to 2 h. In addition, in the data set with white rats, the “toxicity on regular skin application” value is “gonadotoxic and embryotoxic”.
Consider `CCCN(CCC)C(=O)COCc1ccccc1`, for which the “Experimental PT” value in the data set on arthropod was 0.5 h.
`CCCN(CCC)C(=O)c1ccccc1OCC`: the “Experimental PT” value in the data set on arthropod is 0.3 h.
For `CCN(CC)C(=O)Cc1cccc(Br)c1` [N,N-diethyl-2-(3-bromo-phenyl)-acetamide], the “Experimental PT” value with arthropods [1] is 0.63 h.
Consider `CCOc1ccccc1C(=O)N(CC)CC`, for which the “Experimental PT” value with arthropod is 0.5 h.
Consider `CCCCN1C(O)=CC(C)c2ccccc21` (centres unmarked), for which, in the data set with arthropod, the “Experimental PT” value was 2.0 h.
For the molecule `C=CCSc1nccnc1C` [2-allylsulfanyl-3-methyl-pyrazine], in the data set with arthropods [1], the “Experimental PT” value came to 1.6 h and the “repellent activity” value was “found to exhibit repellent activity against arthropods”.
With `CCN(CC)C(=O)Cc1cccc(C(F)(F)F)c1` [N,N-diethyl-2-(3-trifluoromethyl-phenyl)-acetamide], the “Experimental PT” value in the data set with arthropods [1] amounted to 0.14 h.
